Values of other authors, collected in patent publication US20170333404A1, “IMPROVED FORMULATIONS OF VEMURAFENIB AND METHODS OF MAKING THE SAME” (DISPERSOL TECHNOLOGIES, LLC, priority 2014, published 2017).

Legend:
[1] = test system: BRAFV600E/K mutant advanced or malignant melanoma; conditions: Trametinib arm
[2] = compared to the crystalline form
V600E mutation in b-raf = conditions: patients with a V600E mutation in b-raf
[3] = not given; remark: listed apart in the source
melanoma = conditions: at 5 years, adjuvant treatment

Compound: CC(=O)Nc1cccc(-n2c(=O)n(C3CC3)c(=O)c3c(Nc4ccc(I)cc4F)n(C)c(=O)c(C)c32)c1 [Trametinib]
- Grade 3 adverse effect: hypertension [1]: 12%
- Grade 3 adverse effect: rash [1]: 7%

Compound: CCCS(=O)(=O)Nc1ccc(F)c(C(=O)c2c[nH]c3ncc(-c4ccc(Cl)cc4)cc23)c1F [amorphous form of vemurafenib, vemurafenib]
- solubility in water [2]: improved solubility in water

Compound: CCCS(=O)(=O)Nc1ccc(F)c(C(=O)c2c[nH]c3ncc(-c4ccc(Cl)cc4)cc23)c1F [vemurafenib]
- programmed cell death (melanoma cell lines; melanoma cell lines): cause programmed cell death
- inhibition of melanoma cells (melanoma cell lines; melanoma cells without BRAF V600E/V600K mutations): not inhibited
- arthralgia, patients (BRIM-2, 132 patients): 58%
- photosensitivity, patients (BRIM-2, 132 patients): 52%
- skin rash, patients (BRIM-2, 132 patients): 52%
- patients in whom dose modification was necessary (BRIM-2, to manage side effects): 45%
- patients showing partial to complete regression (V600E mutation in b-raf): ~80%
- patients with reduced numbers of cancer cells (advanced melanoma; group of 16 patients with advanced melanoma): over half
- median increased survival time over the control group (advanced melanoma; treated group vs control group): 6 months
- patients with skin lesions that may need surgical removal ([3]; at MTD of 960 mg twice a day): 31%
- maximum tolerated dose (MTD) ([3]; patients): 960 mg twice a day

Compound: interferon
- increase in survival (melanoma): 3%
